We go through two compounds from paper PMC12281142, “A potent phenylalkylamine disrupts mycobacterial membrane bioenergetics and augments bactericidal activity of bedaquiline” (iScience, 2025).

In one test the test system is M. bovis BCG. Type of test: cell-based, Mycobacterium bovis BCG.
The next test deals with Mtb H37Rv. The note with it: drug sensitive and resistant strains of Mtb H37Rv; cited from earlier work.

Regarding `CCCCCCCCC(C#N)(CCCN(C)CCc1ccc(OC)c(OC)c1)c1ccc(OC)c(OC)c1` (centres unmarked) [PhA2], the spontaneous mutation frequency in the test on M. bovis BCG is < 10^−9 /CFU.

With `COc1ccc(CCN(C)CCCC(C#N)(c2ccc(OC)c(OC)c2)C(C)C)cc1OC` (centres unmarked) [VP, verapamil, reference compound], the “decrease in BDQ MIC caused by VP” value in the test on Mtb H37Rv is 20 fold.
